Assay results as given in patent US20240109865A1, “INDAZOLE COMPOUNDS AS KINASE INHIBITORS” (TYRA BIOSCIENCES, INC., priority 2020, published 2024).

How the values were obtained:
Assay in all cases: Kinase assay, binding constants (Kd), kinase-tagged T7 phage, qPCR
FGFR3 = FGFR3 (Homo sapiens (Human), UniProt P22607)
Experimental: (§1) Kinase-tagged T7 phage strains were prepared in an E. coli host derived from the BL21 strain. E. coli were grown to log-phase and infected with T7 phage and incubated with shaking at 32° C. until lysis. The lysates were centrifuged and filtered to remove cell debris. Streptavidin-coated magnetic beads were treated with biotinylated small molecule ligands for 30 minutes at room temperature to generate affinity resins for kinase assays. The liganded beads were blocked with excess biotin and washed with blocking buffer SeaBlock (Pierce), […], 1 mM DTT to remove unbound ligand and to reduce non-specific binding.
(§2) Test compounds were prepared as 111λ stocks in 10000 DMS0. Kds were determined using an 11-point 3-fold compound dilution series with three DMSO control points. […] The compounds were then diluted directly into the assays such that the final concentration of DMSO was 0.9%. All reactions performed in polypropylene 384-well plate. Each was a final volume of 0.02 ml. […] The beads were then re-suspended in elution buffer (1×PBS, 0.05% Tween […] non-biotinylated affinity ligand) and incubated at room temperature with shaking for 30 minutes. The kinase concentration in the eluates was measured by qPCR.
(§3) Binding constants were calculated with a standard dose-response curve using the Hill equation: […]
(§4) The Hill Slope was set to −1. Curves were fitted using a non-linear least square fit with the Levenberg-Marquardt algorithm.

FGFR3 (V555M) = FGFR3 (V555M) (Homo sapiens (Human), UniProt P22607, V555M); conditions: V555M mutant
Sequence of FGFR3 (V555M) (P22607 23-806 V555M): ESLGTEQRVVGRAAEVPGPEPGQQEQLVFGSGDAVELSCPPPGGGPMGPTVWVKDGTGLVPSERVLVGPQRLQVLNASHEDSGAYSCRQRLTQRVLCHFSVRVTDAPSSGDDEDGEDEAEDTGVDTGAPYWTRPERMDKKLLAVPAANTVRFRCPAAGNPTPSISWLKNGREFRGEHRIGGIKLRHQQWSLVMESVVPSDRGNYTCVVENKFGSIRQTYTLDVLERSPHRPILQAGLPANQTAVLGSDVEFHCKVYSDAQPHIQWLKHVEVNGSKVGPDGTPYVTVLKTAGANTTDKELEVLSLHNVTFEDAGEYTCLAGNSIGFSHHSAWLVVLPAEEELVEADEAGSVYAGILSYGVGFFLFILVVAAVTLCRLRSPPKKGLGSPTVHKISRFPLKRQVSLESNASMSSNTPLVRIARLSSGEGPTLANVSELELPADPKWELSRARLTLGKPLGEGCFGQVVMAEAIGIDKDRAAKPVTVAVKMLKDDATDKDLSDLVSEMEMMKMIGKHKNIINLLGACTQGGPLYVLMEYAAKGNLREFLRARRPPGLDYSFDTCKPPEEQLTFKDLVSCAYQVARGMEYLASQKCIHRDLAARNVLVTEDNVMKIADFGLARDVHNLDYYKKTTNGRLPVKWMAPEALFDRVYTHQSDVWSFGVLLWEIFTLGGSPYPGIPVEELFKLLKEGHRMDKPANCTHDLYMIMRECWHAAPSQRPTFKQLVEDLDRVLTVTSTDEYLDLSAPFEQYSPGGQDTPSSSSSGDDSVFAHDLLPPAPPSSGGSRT
Experimental: as §1, §2, §3, §4

FGFR4 = FGFR4 (Homo sapiens (Human), UniProt P22455)
Sequence of FGFR4 (P22455 22-802): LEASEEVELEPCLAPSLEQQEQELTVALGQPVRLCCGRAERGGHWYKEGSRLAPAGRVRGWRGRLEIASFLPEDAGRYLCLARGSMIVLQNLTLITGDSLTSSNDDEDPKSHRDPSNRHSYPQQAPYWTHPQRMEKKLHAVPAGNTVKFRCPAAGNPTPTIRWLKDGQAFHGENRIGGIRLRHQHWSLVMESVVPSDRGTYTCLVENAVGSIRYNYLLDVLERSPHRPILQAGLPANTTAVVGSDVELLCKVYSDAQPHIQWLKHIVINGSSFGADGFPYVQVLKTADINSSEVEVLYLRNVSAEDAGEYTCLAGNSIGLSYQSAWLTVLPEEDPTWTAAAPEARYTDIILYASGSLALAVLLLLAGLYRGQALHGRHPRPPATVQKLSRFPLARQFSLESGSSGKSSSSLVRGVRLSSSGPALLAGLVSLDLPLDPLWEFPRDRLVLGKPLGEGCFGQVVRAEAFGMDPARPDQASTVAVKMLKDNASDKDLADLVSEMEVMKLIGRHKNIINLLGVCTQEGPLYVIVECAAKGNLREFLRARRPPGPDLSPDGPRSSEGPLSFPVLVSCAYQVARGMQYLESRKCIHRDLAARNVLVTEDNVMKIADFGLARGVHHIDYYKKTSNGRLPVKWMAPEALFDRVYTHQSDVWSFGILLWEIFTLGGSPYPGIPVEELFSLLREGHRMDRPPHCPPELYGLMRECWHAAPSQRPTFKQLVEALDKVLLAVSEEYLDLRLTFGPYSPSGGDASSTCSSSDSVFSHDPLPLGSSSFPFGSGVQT
Experimental: as §1, §2, §3, §4

FGFR2 = FGFR2 (Homo sapiens (Human), UniProt P21802)
Sequence of FGFR2 (P21802 22-821): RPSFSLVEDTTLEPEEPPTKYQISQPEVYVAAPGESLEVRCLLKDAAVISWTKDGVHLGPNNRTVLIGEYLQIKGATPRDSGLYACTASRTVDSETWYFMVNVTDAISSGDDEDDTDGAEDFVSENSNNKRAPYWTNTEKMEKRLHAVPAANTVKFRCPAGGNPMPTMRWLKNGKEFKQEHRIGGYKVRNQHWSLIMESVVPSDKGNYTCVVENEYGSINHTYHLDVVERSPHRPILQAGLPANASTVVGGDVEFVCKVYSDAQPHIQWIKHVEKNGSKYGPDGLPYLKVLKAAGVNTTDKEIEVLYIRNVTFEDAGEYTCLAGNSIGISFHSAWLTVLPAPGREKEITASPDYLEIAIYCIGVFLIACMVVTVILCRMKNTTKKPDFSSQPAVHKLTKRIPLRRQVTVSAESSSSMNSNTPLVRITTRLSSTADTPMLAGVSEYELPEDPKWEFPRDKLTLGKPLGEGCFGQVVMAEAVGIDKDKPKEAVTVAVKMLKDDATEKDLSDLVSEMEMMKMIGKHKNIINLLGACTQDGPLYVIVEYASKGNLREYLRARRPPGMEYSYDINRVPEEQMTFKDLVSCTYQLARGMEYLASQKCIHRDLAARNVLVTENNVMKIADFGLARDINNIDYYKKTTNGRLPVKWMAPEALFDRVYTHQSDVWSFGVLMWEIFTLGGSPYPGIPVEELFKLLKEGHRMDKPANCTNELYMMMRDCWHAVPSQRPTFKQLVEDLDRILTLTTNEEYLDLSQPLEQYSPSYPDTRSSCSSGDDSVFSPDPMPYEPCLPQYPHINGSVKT
Experimental: as §1, §2, §3, §4

FGFR1 = FGFR1 (Homo sapiens (Human), UniProt P11362)
Sequence of FGFR1 (P11362 22-822): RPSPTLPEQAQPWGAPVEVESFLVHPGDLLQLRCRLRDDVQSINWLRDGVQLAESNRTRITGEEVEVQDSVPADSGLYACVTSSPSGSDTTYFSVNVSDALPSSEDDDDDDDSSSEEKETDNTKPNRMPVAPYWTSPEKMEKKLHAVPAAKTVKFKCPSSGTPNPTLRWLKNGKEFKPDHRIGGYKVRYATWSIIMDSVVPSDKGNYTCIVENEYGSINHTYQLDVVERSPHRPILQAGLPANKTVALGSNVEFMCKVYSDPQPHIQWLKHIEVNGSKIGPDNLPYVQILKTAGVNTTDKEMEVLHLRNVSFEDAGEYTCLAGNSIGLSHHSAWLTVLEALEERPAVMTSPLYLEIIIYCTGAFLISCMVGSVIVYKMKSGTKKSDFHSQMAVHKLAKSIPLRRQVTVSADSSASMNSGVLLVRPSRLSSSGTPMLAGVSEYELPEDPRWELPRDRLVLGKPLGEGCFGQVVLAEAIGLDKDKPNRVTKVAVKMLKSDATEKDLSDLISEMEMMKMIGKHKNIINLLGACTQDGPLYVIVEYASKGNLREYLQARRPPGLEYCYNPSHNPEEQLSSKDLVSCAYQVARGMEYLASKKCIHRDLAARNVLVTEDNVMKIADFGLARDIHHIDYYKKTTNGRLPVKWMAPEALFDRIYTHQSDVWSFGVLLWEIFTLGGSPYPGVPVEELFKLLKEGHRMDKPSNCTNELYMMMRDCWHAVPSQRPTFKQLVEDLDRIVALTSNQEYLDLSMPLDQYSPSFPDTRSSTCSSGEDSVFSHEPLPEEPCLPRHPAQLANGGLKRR
Experimental: as §1, §2, §3, §4

Sequence of FGFR3 (P22607 23-806): as the sequence (P22607 23-806 V555M) above, with M533V counted along it

| Structure (SMILES) | Kd (FGFR3) | Kd (FGFR3 (V555M)) | Kd (FGFR4) | Kd (FGFR2) | Kd (FGFR1) |
| --- | --- | --- | --- | --- | --- |
| C[C@@H](Oc1ccc2[nH]nc(-c3cnc(N4CC5(CCCNC5)C4)nc3)c2c1)c1c(Cl)cncc1Cl [Example 132, 3-[2-(2,8-diazaspiro[3.5]nonan-2-yl)pyrimidin-5-yl]-5-[(1R)-1-(3,5-dichloro-4-pyridyl)ethoxy]-1H-indazole] | 1 to 20 nM | 1 to 20 nM | 1 to 20 nM | 1 to 20 nM | 1 to 20 nM |
| C[C@@H](Oc1ccc2[nH]nc(-c3cnc(N4CC5(CCNCC5)C4)nc3)c2c1)c1c(Cl)cncc1Cl [Example 133, 3-[2-(2,7-diazaspiro[3.5]nonan-2-yl)pyrimidin-5-yl]-5-[(1R)-1-(3,5-dichloro-4-pyridyl)ethoxy]-1H-indazole] | 1 to 20 nM | 1 to 20 nM | 1 to 20 nM | 1 to 20 nM | 1 to 20 nM |
| C[C@@H](Oc1ccc2[nH]nc(-c3cnc(N4CC5(CCCN(S(C)(=O)=O)C5)C4)nc3)c2c1)c1c(Cl)cncc1Cl [Example 134, 5-[(1R)-1-(3,5-dichloro-4-pyridyl)ethoxy]-3-[2-(8-methylsulfonyl-2,8-diazaspiro[3.5]nonan-2-yl)pyrimidin-5-yl]-1H-indazole] | 1 to 20 nM | 1 to 20 nM | 1 to 20 nM | 20 to 100 nM | 20 to 100 nM |
| COC(=O)N1CC2(C1)CN(c1ccc(-c3n[nH]c4ccc(O[C@H](C)c5c(C)cnnc5C)cc34)cn1)C2 [Example 150, methyl 6-[5-[5-[(1R)-1-(3,5-dimethylpyridazin-4-yl)ethoxy]-1H-indazol-3-yl]-2-pyridyl]-2,6-diazaspiro[3.3]heptane-2-carboxylate] | 1 to 20 nM | 1 to 20 nM | 1 to 20 nM | 1 to 20 nM | 1 to 20 nM |
| CCOC(=O)N1CC2(C1)CN(c1ccc(-c3n[nH]c4ccc(O[C@@H](C)c5c(C)cnnc5C)cc34)cn1)C2 [Example 151, ethyl 6-[5-[5-[(1S)-1-(3,5-dimethylpyridazin-4-yl)ethoxy]-1H-indazol-3-yl]-2-pyridyl]-2,6-diazaspiro[3.3]heptane-2-carboxylate] | 20 to 100 nM | 1 to 20 nM | 100 to 300 nM | 100 to 300 nM | > 300 nM |
| COC(=O)N1CC2(C1)CN(c1ccc(-c3n[nH]c4ccc(O[C@@H](C)c5c(C)cnnc5C)cc34)cn1)C2 [Example 153, methyl 6-[5-[5-[(1S)-1-(3,5-dimethylpyridazin-4-yl)ethoxy]-1H-indazol-3-yl]-2-pyridyl]-2,6-diazaspiro[3.3]heptane-2-carboxylate] | 20 to 100 nM | 1 to 20 nM | 100 to 300 nM | 100 to 300 nM | > 300 nM |

Further lines, results first:

| Kd (FGFR3) | Kd (FGFR3 (V555M)) | Kd (FGFR4) | Kd (FGFR2) | Kd (FGFR1) | Structure (SMILES) |
| --- | --- | --- | --- | --- | --- |
| > 300 nM | > 300 nM | > 300 nM | > 300 nM | > 300 nM | Cc1cnnc(C)c1[C@H](C)Oc1ccc2[nH]nc(-c3cnc(N4CC5(CCS(=O)(=O)C5)C4)nc3)c2c1 [Example 147, 2-[5-[5-[(1S)-1-(3,5-dimethylpyridazin-4-yl)ethoxy]-1H-indazol-3-yl]pyrimidin-2-yl]-6λ^6-thia-2-azaspiro[3.4]octane 6,6-dioxide] |
| 20 to 100 nM | 20 to 100 nM | 100 to 300 nM | 100 to 300 nM | > 300 nM | Cc1cnnc(C)c1[C@H](C)Oc1ccc2[nH]nc(-c3ccc(N4CC5(C4)CN(S(C)(=O)=O)C5)nc3)c2c1 [Example 149, 5-[(1S)-1-(3,5-dimethylpyridazin-4-yl)ethoxy]-3-[6-(2-methylsulfonyl-2,6-diazaspiro[3.3]heptan-6-yl)-3-pyridyl]-1H-indazole] |
| 1 to 20 nM | 1 to 20 nM | 1 to 20 nM | 1 to 20 nM | 20 to 100 nM | Cc1cnnc(C)c1[C@@H](C)Oc1ccc2[nH]nc(-c3cnc(N4CCC5(CC4)CCS(=O)(=O)C5)nc3)c2c1 [Example 152, 8-[5-[5-[(1R)-1-(3,5-dimethylpyridazin-4-yl)ethoxy]-1H-indazol-3-yl]pyrimidin-2-yl]-2λ^6-thia-8-azaspiro[4.5]decane 2,2-dioxide] |
